Results reported in ChEMBL document CHEMBL6177986, “A Perspective on the Strategic Application of Deconstruction-Reconstruction in Drug Discovery” (J Med Chem, 2025).

Assays:
[1] = target: T1, Phosphatidylinositol 4,5-bisphosphate 3-kinase catalytic subunit delta isoform (Homo sapiens, UniProt O00329); assay: Inhibition of PI3Kdelta (unknown origin)
T1 sequence (O00329 whole entry): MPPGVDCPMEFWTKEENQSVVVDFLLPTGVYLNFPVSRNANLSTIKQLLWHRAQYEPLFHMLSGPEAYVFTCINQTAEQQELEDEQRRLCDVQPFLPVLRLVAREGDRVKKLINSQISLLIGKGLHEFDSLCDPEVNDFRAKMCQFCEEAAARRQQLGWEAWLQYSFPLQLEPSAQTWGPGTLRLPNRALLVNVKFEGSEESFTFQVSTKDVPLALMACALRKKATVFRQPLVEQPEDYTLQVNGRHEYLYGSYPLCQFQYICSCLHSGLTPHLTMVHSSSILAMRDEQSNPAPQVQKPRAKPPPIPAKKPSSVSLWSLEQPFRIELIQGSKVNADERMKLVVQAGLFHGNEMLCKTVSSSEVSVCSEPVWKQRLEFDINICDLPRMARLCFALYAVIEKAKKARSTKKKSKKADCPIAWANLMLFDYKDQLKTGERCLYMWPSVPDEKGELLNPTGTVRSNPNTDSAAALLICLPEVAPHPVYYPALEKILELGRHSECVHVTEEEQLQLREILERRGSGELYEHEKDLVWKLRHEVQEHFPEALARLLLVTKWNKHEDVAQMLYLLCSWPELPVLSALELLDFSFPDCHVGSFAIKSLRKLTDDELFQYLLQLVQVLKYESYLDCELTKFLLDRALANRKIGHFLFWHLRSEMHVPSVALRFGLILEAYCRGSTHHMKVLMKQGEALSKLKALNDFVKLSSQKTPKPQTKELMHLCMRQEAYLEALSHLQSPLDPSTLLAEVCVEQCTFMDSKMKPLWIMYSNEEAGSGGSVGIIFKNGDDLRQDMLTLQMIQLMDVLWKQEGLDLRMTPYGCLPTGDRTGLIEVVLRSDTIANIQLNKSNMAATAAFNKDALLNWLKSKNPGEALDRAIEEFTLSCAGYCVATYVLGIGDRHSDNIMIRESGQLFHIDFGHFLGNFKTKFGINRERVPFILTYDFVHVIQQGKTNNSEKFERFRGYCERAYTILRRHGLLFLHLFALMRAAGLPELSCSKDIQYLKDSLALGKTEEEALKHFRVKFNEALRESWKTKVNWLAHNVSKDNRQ

[2] = target: Phosphatidylinositol 4,5-bisphosphate 3-kinase catalytic subunit gamma isoform (Homo sapiens, UniProt P48736); assay: Inhibition of PI3Kgamma (unknown origin)
Phosphatidylinositol 4,5-bisphosphate 3-kinase catalytic subunit gamma isoform, sequence (P48736 whole entry, canonical isoform): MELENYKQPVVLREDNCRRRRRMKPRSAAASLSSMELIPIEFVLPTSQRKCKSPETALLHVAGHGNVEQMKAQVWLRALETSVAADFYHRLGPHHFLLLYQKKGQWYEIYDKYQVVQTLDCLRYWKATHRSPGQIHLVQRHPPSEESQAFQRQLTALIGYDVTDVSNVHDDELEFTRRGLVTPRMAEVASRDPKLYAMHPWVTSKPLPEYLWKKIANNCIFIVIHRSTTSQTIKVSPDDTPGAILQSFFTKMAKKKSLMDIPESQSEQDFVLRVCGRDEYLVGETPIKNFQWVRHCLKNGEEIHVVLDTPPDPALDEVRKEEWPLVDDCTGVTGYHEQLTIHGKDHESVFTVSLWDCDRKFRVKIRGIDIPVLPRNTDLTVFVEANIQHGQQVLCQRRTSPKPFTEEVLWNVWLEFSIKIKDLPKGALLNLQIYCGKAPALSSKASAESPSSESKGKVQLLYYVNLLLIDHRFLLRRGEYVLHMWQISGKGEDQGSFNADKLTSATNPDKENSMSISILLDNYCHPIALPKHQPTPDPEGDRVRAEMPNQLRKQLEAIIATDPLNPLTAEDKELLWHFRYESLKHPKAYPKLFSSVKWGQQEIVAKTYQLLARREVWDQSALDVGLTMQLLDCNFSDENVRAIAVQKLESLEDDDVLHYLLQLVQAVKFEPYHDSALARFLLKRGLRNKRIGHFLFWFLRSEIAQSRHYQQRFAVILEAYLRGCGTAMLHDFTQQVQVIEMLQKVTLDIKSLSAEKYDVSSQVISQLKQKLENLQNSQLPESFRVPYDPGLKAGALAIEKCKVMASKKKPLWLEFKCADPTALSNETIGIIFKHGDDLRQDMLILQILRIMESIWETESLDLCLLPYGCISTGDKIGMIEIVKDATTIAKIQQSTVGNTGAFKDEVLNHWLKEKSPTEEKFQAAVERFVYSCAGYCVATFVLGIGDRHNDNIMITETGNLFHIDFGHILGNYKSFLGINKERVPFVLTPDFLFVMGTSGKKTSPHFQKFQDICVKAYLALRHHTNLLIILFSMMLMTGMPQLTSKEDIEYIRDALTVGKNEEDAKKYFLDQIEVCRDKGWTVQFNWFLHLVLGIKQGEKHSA

[3] = target: Phosphatidylinositol 4,5-bisphosphate 3-kinase catalytic subunit alpha isoform (Homo sapiens, UniProt P42336); assay: Inhibition of PI3Kalpha (unknown origin)
Phosphatidylinositol 4,5-bisphosphate 3-kinase catalytic subunit alpha isoform, sequence (P42336 whole entry, canonical isoform): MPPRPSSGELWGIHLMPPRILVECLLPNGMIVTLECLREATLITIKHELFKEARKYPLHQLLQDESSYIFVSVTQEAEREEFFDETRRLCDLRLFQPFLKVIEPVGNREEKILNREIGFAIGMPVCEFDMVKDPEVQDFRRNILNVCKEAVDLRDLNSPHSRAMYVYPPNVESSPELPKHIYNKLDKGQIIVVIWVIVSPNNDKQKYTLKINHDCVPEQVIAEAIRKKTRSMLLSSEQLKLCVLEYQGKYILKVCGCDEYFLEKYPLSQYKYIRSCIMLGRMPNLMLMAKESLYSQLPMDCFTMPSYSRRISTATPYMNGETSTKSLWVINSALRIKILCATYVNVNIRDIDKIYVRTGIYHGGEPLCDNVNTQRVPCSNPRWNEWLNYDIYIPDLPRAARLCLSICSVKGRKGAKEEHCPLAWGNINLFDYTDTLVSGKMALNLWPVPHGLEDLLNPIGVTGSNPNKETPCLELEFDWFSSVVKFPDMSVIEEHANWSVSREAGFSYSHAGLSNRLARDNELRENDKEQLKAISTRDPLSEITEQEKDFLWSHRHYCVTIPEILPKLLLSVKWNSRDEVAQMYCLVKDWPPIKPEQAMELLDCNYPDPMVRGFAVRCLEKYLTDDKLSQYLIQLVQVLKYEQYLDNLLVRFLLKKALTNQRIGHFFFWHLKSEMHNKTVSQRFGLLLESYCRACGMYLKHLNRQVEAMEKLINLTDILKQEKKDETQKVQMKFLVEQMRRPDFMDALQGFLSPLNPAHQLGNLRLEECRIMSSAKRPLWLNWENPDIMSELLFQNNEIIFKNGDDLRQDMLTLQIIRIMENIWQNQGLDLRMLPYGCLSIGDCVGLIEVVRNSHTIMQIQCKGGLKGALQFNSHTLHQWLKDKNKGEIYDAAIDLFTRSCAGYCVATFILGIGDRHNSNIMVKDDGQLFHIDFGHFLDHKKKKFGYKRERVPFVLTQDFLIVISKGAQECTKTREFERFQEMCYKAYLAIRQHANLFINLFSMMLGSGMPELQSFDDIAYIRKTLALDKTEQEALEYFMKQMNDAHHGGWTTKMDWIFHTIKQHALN

[4] = target: Phosphatidylinositol 4,5-bisphosphate 3-kinase catalytic subunit beta isoform (Homo sapiens, UniProt P42338); assay: Inhibition of PI3Kbeta (unknown origin)
Phosphatidylinositol 4,5-bisphosphate 3-kinase catalytic subunit beta isoform, sequence (P42338 whole entry, canonical isoform): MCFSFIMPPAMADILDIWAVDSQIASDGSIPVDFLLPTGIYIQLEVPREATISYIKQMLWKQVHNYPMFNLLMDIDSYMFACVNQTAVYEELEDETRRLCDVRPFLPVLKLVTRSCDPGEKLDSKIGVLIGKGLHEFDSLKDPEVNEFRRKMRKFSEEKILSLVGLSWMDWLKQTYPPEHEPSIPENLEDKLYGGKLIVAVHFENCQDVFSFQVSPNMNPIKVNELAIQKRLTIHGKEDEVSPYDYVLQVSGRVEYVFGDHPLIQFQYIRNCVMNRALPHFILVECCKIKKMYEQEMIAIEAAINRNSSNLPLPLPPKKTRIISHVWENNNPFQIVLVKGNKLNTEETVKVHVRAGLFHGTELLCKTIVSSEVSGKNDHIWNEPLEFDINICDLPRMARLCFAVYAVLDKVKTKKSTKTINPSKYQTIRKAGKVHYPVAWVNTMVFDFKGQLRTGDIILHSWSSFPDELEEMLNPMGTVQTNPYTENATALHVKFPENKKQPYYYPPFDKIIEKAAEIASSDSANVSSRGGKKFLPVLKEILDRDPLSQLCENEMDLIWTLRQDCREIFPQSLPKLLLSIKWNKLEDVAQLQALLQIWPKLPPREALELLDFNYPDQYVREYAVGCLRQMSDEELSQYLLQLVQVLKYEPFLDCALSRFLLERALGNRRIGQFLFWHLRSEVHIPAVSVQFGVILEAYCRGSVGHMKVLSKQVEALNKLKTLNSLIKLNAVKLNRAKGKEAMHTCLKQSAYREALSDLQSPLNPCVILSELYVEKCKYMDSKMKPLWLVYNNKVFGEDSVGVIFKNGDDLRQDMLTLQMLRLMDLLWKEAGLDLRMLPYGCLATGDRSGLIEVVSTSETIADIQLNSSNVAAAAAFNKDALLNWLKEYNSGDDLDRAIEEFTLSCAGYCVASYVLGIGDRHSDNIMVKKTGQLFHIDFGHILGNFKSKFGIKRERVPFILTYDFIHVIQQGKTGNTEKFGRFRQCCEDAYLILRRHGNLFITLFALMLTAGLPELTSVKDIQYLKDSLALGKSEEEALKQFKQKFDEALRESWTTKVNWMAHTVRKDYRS

| Compound | IC50 [1] [nM] | IC50 [2] [nM] | IC50 [3] [nM] | IC50 [4] [nM] |
| --- | --- | --- | --- | --- |
| COc1ncc(C2=CCOCC2)cc1NS(=O)(=O)c1cn(Cc2ccccc2)c(C)n1 | 6 | – | – | – |
| COc1ncc(-c2ccc3ccncc3c2)cc1NS(C)(=O)=O | 160 | 790 | 2500 | 2500 |
| COc1ncc(-c2ccncc2)cc1NS(C)(=O)=O | 250 | 2500 | 6300 | 790 |

Now from value to molecule:

| IC50 [1] [nM] | IC50 [2] [nM] | IC50 [3] [nM] | IC50 [4] [nM] | Compound |
| --- | --- | --- | --- | --- |
| – | – | > 32000 | – | c1cc(-c2ccc3ccncc3c2)c2cc[nH]c2c1 |
| – | > 50000 | > 50000 | > 50000 | c1cc(-c2ccncc2)c2cc[nH]c2c1 |
